Data on 1 molecule can be found in PMC9184620, “TAS1553, a small molecule subunit interaction inhibitor of ribonucleotide reductase, exhibits antitumor activity by causing DNA replication stress” (Communications Biology, 2022).

This assay has as its system intracellular dNTP pools in HCC38 and MV-4-11 cells. The assay is described as follows: Measurement of intracellular dNTP/ATP pools by LC-MS/MS. Format: cell-based, human. How it is done:
Next, we examined the RNR inhibitory effect of TAS1553 in cells by measuring dNDP pools which are direct products of RNR. However, all dNDP pools could not be detected using LC-MS/MS due to detection limit. Then we determined whether TAS1553 affected the intracellular dNTP pools as surrogate marker for RNR inhibition in cells. LC-MS/MS could not measure dGTP pool due to masking dGTP peak by ATP, as previously reported; thus, dATP, dCTP and dTTP pools were analyzed. HCC38 and MV-4-11, an acute myelogenous leukemia (AML) cell line, were exposed to TAS1553, and the peak area of each dNTP was determined using cell extracts.
Next, we evaluated both concentration-dependent and time-dependent effects of TAS1553 on the dATP pool in HCC38 and MV-4-11 cell lines using absolute quantification. After 2 h of TAS1553 exposure, there was a concentration-dependent reduction of intracellular dATP pool in both cell lines (Fig. 2c). Furthermore, the intracellular dATP pool was reduced within 30 minutes when treated with TAS1553 at 1 or 10 µmol/L in both cell lines (Fig. 2d), consistent with its inhibitory effect on the protein-protein interaction (Fig. 2a).
Cells were plated, cultured for 1 day, treated with the compound, and harvested. The collected cells were homogenized with 0.42 mol/L perchloric acid, including IS-dATP at 0.6 μmol/L and IS-ATP at 2.4 μmol/L as internal standards for dATP and ATP, respectively. At each time point, xenograft tumors were excised after single dosing of the test compound. The tissues were homogenized with 0.42 mol/L perchloric acid, including IS-dATP at 3 μmol/L as an internal standard for dATP and ATP. Subsequently, a dichloromethane solution containing 0.5 N tri-n-octylamine was added to the perchloric acid-soluble fraction obtained by centrifugation. The aqueous layer collected after vortex and centrifugation was analyzed by LC-MS/MS. LC-MS/MS analysis was performed with a prominence HPLC system connected to a LCMS-8040 tandem mass spectrometer with ESI probe (SHIMADZU CORPORATION). […]

With `Cc1ccc(F)c([C@@H](C)[C@H](NS(=O)(=O)c2ccc(Cl)cc2C(N)=O)c2n[nH]c(=O)o2)c1C` [TAS1553, 5-chloro-2-{N-[(1S,2R)-2-(6-fluoro-2,3-dimethylphenyl)-1-(5-oxo-4,5-dihydro-1,3,4-oxadiazol-2-yl)propyl]sulfamoyl}benzamide], for the setting “HCC38 and MV-4-11, 2 h”, the “effect on intracellular dATP area” value was “dramatically reduced”; the “effect on intracellular dCTP and dTTP areas” value was “increased”. In addition, for the setting “until 2 h, 10 µmol/L”, the “effect on intracellular ATP pool” value is listed as “did not affect the intracellular ATP pool remarkably”.
